Data from ChEMBL document CHEMBL1146541, “New cytotoxic indolic metabolites from a marine Streptomyces” (2003).
Active and inactive are the calls of the source.

Tests used:
PANC-1 = assay: Cytotoxicity against human PANC1 cells; format: functional, cell-based
LNCaP = assay: Cytotoxicity against human LNCAP cells; format: functional, cell-based
LoVo [1] = assay: Cytotoxicity against human LoVo cells; format: functional, cell-based
K562 = assay: Cytotoxicity against human K562 cells; format: functional
LoVo [2] = assay: Cytotoxicity against doxorubicin-resistant human LoVo cells; format: functional, cell-based
HMEC-1 = assay: Cytotoxicity against human HMEC1 cells; format: functional, cell-based

Measured: Activity

CC(C)=CCc1ccc2c(CC#N)c[nH]c2c1
inactive: PANC-1 | LNCaP | LoVo [1] | K562 | LoVo [2] | HMEC-1
